These results are taken from US11872225B2, “Pyruvate kinase modulators and use thereof” (Agios Pharmaceuticals, Inc., priority 2017, dated 2024).

Bounds are passed on as bounds.

Sequence of wild type PKM2 (P14618 whole entry): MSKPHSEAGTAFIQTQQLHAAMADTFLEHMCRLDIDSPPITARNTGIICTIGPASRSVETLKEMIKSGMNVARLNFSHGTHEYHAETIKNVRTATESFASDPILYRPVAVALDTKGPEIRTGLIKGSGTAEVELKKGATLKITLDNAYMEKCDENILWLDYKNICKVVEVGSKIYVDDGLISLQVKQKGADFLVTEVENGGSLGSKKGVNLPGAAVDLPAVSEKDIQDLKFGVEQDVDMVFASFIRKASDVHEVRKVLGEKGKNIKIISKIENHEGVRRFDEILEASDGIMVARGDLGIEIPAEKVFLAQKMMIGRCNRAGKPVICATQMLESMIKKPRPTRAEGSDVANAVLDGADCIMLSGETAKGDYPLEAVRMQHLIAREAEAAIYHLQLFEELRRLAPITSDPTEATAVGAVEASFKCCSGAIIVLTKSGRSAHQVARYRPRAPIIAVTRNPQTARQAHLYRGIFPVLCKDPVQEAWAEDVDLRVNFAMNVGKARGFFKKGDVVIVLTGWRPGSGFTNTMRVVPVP

The target in one assay is PKM2 (Mus musculus, UniProt P52480).
Sequence of PKM2 (P52480 whole entry): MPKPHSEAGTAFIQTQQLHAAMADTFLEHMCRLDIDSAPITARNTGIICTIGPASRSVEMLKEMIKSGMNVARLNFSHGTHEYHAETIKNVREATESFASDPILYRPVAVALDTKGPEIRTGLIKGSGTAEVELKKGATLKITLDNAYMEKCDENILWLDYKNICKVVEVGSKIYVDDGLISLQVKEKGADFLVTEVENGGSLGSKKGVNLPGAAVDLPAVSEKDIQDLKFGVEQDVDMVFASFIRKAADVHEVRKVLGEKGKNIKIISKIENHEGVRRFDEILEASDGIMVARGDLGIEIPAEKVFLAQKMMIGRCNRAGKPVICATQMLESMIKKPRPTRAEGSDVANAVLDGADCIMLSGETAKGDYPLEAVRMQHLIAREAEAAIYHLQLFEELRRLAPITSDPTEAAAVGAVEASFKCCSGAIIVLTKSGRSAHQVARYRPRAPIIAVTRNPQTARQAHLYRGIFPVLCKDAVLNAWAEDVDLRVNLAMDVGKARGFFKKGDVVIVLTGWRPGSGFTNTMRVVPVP
Assay: not given
The settings on record: in vivo, LPS; cited from earlier work.
With `Cn1c2cc([S+](C)[O-])sc2c2cnn(Cc3cccc(N)c3)c(=O)c21` (stereo not shown) [TEPP-46], the IL-1β production result was “inhibited LPS and IL-1β production”; the “production of IL-10” value is reported as “boosting production of IL-10”.

The next assay addresses wild type PKM2 (Homo sapiens, UniProt P14618). Description: PKM2 Assay (LDH/NADH-coupled, absorbance at 340 nm). The settings on record: wild type PKM2 activation; 60 min preincubation at 25° C.; ADP 0.4 mM, PEP 0.11 mM; read-out: PKM2 WT AC50. Type of assay: biochemical. How it is done:
A compound described herein may be tested for its ability to activate PKM2. For simplicity, the activation activity of these compounds is represented as an AC50 in Table 2. In Tables 2, a compound described herein may have an AC50 of wild type PKM2.
PKM2 enzyme stock solution was diluted to prepare a 1.11× Reaction Mix (without ADP). 1 μL of test compound was first added to the wells followed by 40 μL of 1.11× Reaction Mix (without ADP) and incubated at room temperature (25° C.) for 60 min. The reaction was initiated with 10 μL ADP (0.4 mM final concentration), bringing the final Reaction Mix to 1×, and the reaction progress was measured as changes in absorbance at 340 nm wavelength at room temperature.
Test compound preparation: Test compounds were prepared at 50× final concentration in DMSO. 1 to 3 dilutions were made for 11 points (for example 50 μL of 5000 μM compound was added to 100 μL 100% DMSO to yield a 1667 μM, 50 μL of this added to 100 μL DMSO to yield 556 μM, and so forth). The compounds were added to the assay as a 1 to 50 dilution (1 μL in 50 μL) to yield a top concentration of 100 μM, decreasing 3-fold for 11 points.
Reaction Mix: PKM2 (5 ng/well, 0.1 μg/ml), ADP (0.4 mM), PEP (0.11 mM), NADH (180 μM), LDH (0.005 U/μL, Sigma #L3888), 1 mM DTT, 0.03% BSA in 1× Reaction Buffer
Reaction Buffer: 100 mM KCl, 50 mM Tris pH 7.5, 5 mM MgCl2.
For the compound `Cn1c2nc(Cc3cnc(O)nc3)sc2c2cnn(Cc3cccc4[nH]ncc34)c(=O)c21` [Compound 81], the half-maximal activity concentration (AC50) was > 0.8 µM. Regarding `Cn1c2nc(Cc3cc[nH]n3)sc2c2cnn(Cc3[nH]ncc3Cl)c(=O)c21` [Compound 103], the AC50 is < 0.3 µM. On the same count and under the same terms, next, `Cn1c2nc(Cc3ccccn3)sc2c2cnn(CC3CCOCC3)c(=O)c21` [Compound 139]: > 0.8 µM.

With `Cn1c2nc(Cc3cc[nH]n3)sc2c2cnn(Cc3ccc(C#N)cn3)c(=O)c21` [Compound 118], the AC50 fell in the range of 0.301 to 0.8 µM.

For the compound `CSc1nc2c(s1)c1cnn(Cc3cccc(S(N)(=O)=O)c3)c(=O)c1n2C` [Compound 41], the AC50 was 0.301 to 0.8 µM.

In the case of `O=c1c2c(cnn1Cc1ccccc1)c1sc(Cc3ccccn3)nc1n2-c1ccccc1` [Compound 140], the half-maximal activity concentration (AC50) is > 0.8 µM. Same read-out and setting: next, `Cn1c2nc(Cc3cc[nH]n3)sc2c2cnn(CCc3cccnc3)c(=O)c21` [Compound 136]: 0.301 to 0.8 µM; `Cn1c2nc([S+](C)[O-])sc2c2cnn(Cc3ccc(C(N)=O)cc3)c(=O)c21` (stereo not shown) [Compound 37]: > 0.8 µM; `COc1cccc(Cn2ncc3c4sc(S(=O)(=O)c5ccccc5)nc4n(C)c3c2=O)c1` [Compound 10]: < 0.3 µM. The same measure, in the same setting: the figure for `Cn1ccc(Cn2ncc3c4sc(C(=O)c5cc[nH]n5)nc4n(C)c3c2=O)n1` [Compound 122] is < 0.3 µM. The same measure, in the same setting: the figure for `COc1ncc(Cc2nc3c(s2)c2cnn(Cc4cccc5[nH]ncc45)c(=O)c2n3C)cn1` [Compound 80] is < 0.3 µM; for `Cn1c2nc(Cc3cc[nH]n3)sc2c2cnn(Cc3csc(N)n3)c(=O)c21` [Compound 75] it is < 0.3 µM; for `Cn1c2nc(Cc3cc[nH]n3)sc2c2cnn(Cc3n[nH]cc3F)c(=O)c21` [Compound 105] it is < 0.3 µM. As for `Cn1c2nc(Cc3cc[nH]n3)sc2c2cnn(Cc3ncns3)c(=O)c21` [Compound 94], the concentration at half-maximal activity (AC50) was < 0.3 µM. As for `Cn1cc(CC(N)=O)c(Cn2ncc3c4sc(Cc5cc[nH]n5)nc4n(C)c3c2=O)n1` [Compound 125], the AC50 was > 0.8 µM. The same measure, in the same setting: next, `Cn1c2nc(Cc3cccc(N)n3)sc2c2cnn(Cc3cc[nH]n3)c(=O)c21` [Compound 101]: < 0.3 µM; `COC(=O)C(c1cc[nH]n1)c1nc2c(s1)c1cnn(Cc3cccc4[nH]ncc34)c(=O)c1n2C` (stereo not shown) [Compound 58]: > 0.8 µM.

As to `Cn1c2nc(C#N)sc2c2cnn(Cc3csc(N)n3)c(=O)c21` [Compound 54], the concentration at half-maximal activity (AC50) is < 0.3 µM. Same read-out and setting: the figure for `Cn1ccc(Cn2ncc3c4sc(Cc5n[nH]cc5F)nc4n(C)c3c2=O)n1` [Compound 113] is < 0.3 µM. Still for that read-out and setting: the figure for `Cc1nc2c(s1)c1cnn(Cc3c[nH]cn3)c(=O)c1n2C` [Compound 12] is > 0.8 µM. The same measure, in the same setting: next, `Cn1c2nc(Cc3cc[nH]n3)sc2c2cnn(Cc3ccnc(N)n3)c(=O)c21` [Compound 134]: < 0.3 µM; `Cn1ccc(Cn2ncc3c4sc(CCc5cccnc5)nc4n(C)c3c2=O)n1` [Compound 141]: > 0.8 µM. `Cn1c2nc(Cc3ccc(Cl)nc3)sc2c2cnn(Cc3cccc4[nH]ncc34)c(=O)c21` [Compound 55]: the AC50 was > 0.8 µM.
